Like-named read-outs stand apart in the source and are kept apart here.
Legend:
Type in all cases: biochemical
BChE (EC 3.1.1.8) = BChE (EC 3.1.1.8) (Homo sapiens, UniProt P06276); test: In vitro BChE inhibition assay
MAO-A = target: T1, MAO-A (Homo sapiens, UniProt P21397); test: In vitro MAO-A inhibition assay
T1 sequence (P21397 1-527): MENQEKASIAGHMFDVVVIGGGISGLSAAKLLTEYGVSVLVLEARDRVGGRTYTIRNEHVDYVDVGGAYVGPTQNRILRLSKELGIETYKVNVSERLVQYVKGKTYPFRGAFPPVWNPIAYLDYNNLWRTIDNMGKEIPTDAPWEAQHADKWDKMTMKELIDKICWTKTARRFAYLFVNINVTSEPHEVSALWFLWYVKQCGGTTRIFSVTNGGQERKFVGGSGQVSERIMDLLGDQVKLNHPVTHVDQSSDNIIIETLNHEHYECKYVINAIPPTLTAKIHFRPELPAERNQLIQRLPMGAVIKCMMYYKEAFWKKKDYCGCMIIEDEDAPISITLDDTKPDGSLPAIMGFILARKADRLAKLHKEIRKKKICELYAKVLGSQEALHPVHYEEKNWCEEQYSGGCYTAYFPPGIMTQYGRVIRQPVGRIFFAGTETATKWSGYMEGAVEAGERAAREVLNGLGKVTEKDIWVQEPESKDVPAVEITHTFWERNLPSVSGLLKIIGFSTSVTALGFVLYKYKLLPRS

[1] = target: AChE (EC Number: 3.1.1.7.) (Homo sapiens, UniProt P22303); test: In vitro AChE inhibition assay
MAO-B = target: T2, MAO-B (Homo sapiens, UniProt P27338); test: In vitro MAO-B inhibition assay
T2 sequence (P27338 1-520): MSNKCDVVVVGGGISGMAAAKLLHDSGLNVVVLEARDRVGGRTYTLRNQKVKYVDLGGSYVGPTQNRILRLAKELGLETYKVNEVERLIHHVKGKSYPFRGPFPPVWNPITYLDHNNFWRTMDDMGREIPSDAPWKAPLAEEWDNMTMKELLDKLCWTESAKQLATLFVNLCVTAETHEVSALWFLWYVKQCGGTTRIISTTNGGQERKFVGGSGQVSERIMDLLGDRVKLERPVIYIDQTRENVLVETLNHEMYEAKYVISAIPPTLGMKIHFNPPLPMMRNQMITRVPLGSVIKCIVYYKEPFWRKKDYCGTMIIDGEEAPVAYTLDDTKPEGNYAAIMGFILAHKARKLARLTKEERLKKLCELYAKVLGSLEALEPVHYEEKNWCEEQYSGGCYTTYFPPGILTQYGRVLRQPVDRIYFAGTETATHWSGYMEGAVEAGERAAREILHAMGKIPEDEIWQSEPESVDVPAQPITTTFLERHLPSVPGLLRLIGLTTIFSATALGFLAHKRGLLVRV

[2] = target: T3, Cyclooxygenase (COX-2) from human recombinant (Homo sapiens, UniProt P35354); test: biochemical
T3 sequence (P35354 18-604): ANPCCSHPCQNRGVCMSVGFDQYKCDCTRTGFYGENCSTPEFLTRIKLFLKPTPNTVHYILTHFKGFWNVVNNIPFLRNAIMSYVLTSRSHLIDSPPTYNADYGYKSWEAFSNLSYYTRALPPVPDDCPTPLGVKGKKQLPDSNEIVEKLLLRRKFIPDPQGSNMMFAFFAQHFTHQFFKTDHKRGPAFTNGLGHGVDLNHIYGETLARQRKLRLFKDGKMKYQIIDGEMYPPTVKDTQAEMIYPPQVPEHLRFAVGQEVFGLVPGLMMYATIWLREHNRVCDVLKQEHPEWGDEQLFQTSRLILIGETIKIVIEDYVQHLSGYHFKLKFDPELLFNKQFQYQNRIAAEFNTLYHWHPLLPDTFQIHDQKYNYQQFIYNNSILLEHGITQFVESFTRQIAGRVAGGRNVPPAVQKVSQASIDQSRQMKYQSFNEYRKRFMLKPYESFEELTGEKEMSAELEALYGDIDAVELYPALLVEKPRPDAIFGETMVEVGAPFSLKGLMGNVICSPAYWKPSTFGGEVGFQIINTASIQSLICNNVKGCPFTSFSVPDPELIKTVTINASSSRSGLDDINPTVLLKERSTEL

5-lipoxygenase (5-LOX) = test: 5-Lipoxygenase inhibitory assay; settings: read-out: IC50 (μM) ± SEM 5-LOX
[3] = read-out: IC50 (μM) ± SEM BChE, ± SEM
[4] = read-out: IC50 (μM) ± SEM MAO-A, ± SEM

Chain of BChE (EC 3.1.1.8) (P06276 29-602, species assumed): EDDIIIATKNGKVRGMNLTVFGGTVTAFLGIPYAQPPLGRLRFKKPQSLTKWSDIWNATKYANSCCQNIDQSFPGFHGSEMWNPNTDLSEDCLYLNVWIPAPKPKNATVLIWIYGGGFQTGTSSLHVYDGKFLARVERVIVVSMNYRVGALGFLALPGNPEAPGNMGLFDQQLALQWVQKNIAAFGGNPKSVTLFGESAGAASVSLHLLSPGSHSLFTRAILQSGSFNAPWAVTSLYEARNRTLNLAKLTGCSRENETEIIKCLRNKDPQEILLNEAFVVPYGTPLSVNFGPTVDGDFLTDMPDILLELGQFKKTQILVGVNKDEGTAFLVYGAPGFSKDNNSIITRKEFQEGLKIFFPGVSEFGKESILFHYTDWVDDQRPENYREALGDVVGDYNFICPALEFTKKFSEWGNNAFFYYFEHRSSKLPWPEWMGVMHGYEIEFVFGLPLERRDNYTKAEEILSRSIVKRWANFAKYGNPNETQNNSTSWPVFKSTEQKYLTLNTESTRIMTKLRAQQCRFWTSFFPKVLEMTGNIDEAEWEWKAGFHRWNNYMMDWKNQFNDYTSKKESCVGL
Chain of AChE (EC Number: 3.1.1.7.) (P22303 32-614): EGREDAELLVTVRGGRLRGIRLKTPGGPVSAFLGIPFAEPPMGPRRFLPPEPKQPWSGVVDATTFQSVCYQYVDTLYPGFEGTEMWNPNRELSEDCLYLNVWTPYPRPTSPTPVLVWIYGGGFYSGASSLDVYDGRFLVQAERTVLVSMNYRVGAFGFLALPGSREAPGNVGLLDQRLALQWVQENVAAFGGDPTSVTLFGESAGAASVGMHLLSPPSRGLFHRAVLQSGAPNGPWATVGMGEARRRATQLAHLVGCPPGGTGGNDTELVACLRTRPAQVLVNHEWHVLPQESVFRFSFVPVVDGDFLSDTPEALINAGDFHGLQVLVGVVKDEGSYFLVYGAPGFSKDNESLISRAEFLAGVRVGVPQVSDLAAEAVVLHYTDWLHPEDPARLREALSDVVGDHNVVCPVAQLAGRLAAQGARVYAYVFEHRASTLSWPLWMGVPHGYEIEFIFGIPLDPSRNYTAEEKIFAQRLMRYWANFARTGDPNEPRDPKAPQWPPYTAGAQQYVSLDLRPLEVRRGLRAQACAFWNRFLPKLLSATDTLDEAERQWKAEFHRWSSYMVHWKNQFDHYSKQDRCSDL

Molecule | IC50 (BChE (EC 3.1.1.8); [3]) | IC50 (MAO-A; [4]) | activity against BChE, in words (BChE (EC 3.1.1.8)) | IC50 [1] | inhibition of AChE, in words [1] | IC50 (BChE (EC 3.1.1.8)) | IC50 (MAO-A) | IC50 (MAO-B) | IC50 [2] | activity against COX-2, in words [2] | IC50 (5-lipoxygenase (5-LOX))
2,2′-(1-(4-(6-(2,4-Dichlorophenyl)-1,8a-dihydro-7H-[1,2,4]triazolo[3,4-b][1,3,4]thiadiazin-3-yl)phenyl)-1H-1,2,4-triazole-3,5-diyl)diphenol [Compound 25] | 1.09 ± 0.11 µM | 0.81 ± 0.02 µM |  |  |  |  |  |  |  |  | 
3-(3-(4-(3,5-Bis(2-hydroxyphenyl)-1H-1,2,4-triazol-1-yl)phenyl)-1,8a-dihydro-7H-[1,2,4]triazolo[3,4-b][1,3,4]thiadiazin-6-yl)-3,10a-dihydro-2H-benzo[g]chromen-2-one [Compound 22] | 10.8 ± 0.97 µM | 0.61 ± 0.07 µM |  |  |  |  |  |  |  |  | 
3-(3-(4-(3,5-Bis(2-hydroxyphenyl)-1H-1,2,4-triazol-1-yl)phenyl)-1,8a-dihydro-7H-[1,2,4]triazolo[3,4-b][1,3,4]thiadiazin-6-yl)-7-bromo-3,8a-dihydro-2H-chromen-2-one [Compound 23] | 14 ± 1.11 µM | 1.32 ± 0.11 µM | excellent to moderate activity |  |  |  |  |  |  |  | 
O=C(O)c1ccc(-n2nc(-c3ccccc3O)nc2-c2ccccc2O)cc1 [Compound 9, deferasirox, reference compound] |  |  | excellent to moderate activity | 0.43 ± 0.05 µM | significant inhibition | 0.11 ± 0.005 µM | 10 ± 1.78 µM | 0.18 ± 0.01 µM | 4.93 ± 0.38 µM | good to moderate activity | 1.28 ± 0.13 µM
Oc1ccccc1-c1nc(-c2ccccc2O)n(-c2ccc(-c3nnc4n3N=C(c3ccc(Cl)cc3)CS4)cc2)n1 [Compound 15, 2,2′-(1-(4-(6-(4-Chlorophenyl)-7H-[1,2,4]triazolo[3,4-b][1,3,4]thiadiazin-3-yl)phenyl)-1H-1,2,4-triazole-3,5-diyl)diphenol] |  |  |  |  |  | 3.96 ± 0.22 µM | 3.58 ± 0.56 µM |  | 75.3 ± 3.56 µM | good to moderate activity | 

Reference: article PMC11694444 (RSC Advances, 2025)
